Results on two molecules are retold here after patent US6552214B1, “Antimicrobial compound” (General Electric Company, priority 2000, dated 2003).

For series [1] the following is noted: background statement; cited from earlier work.
Series [2] relates to E. coli. The series is described as follows: Kirby-Bauer type assay, zone of inhibition. It is filed as cell-based. Particulars: 24 h incubation. The protocol: (§1) Antimicrobial activity of the modified IRGASAN® bacteriostat was compared to that of the unmodified material in a Kirby-Bauer type assay. Three solutions of IRGASAN® bacteriostat and three solutions of modified IRGASAN® bacteriostat (3, 30 and 3000 ppm) were prepared and soaked into Whatman filter paper disks ˜6 mm in diameter and allowed to dry. The disks were placed onto the surface of nutrient agar plates that had been inoculated with 1×10^6 cells of either E. coli or Pseudomonas aeruginosa. The ability of the compounds to inhibit bacterial growth was determined by measuring the diameter of the zone of inhibition surrounding the filter paper disks after 24 h of incubation. The results (TABLE 1) indicate that there is no difference in activity between the modified and unmodified IRGASAN® bacteriostat compound.

The test system of series [3] is Pseudomonas aeruginosa. Briefly: Kirby-Bauer type assay, zone of inhibition. In kind it is cell-based. The settings on record: P. aeruginosa, 24 h incubation. The protocol:
as §1

Series [4] in a line: Dioxin (2,8 DCDD) formation during GC-MS analysis. It is filed as physicochemical. The settings on record: injection of a 1000 ppm solution at 270° C. (518° F.). The procedure: Dioxin formation was compared between modified and unmodified IRGASAN® bacteriostat samples. It was determined that 2,8 DCDD was produced during analysis of unmodified IRGASAN® bacteriostat by gas-chromatography-mass spectroscopy (GC-MS), presumably during injection of the material at 270° C. (518° F.).
The structure of IRGASAN® bacteriostat was modified by derivatization with BSTFA. A 0.1 ml volume of BSTFA (Supelco inc.) was added to 1.0 ml of a 1000 ppm IRGASAN® solution. Dioxin levels were undetectable upon analysis of the modified IRGASAN® solution by GC-MS.

[5] abbreviates: 3 ppm solution soaked into filter paper disk.
[6] abbreviates: 30 ppm solution soaked into filter paper disk.
[7] abbreviates: 3000 ppm solution soaked into filter paper disk.

Structures are written as SMILES.

Take `Oc1cc(Cl)ccc1Oc1ccc(Cl)cc1Cl` [Unmodified, 2,4,4′-dichloro-2′-hydroxydiphenyl ether]: in series [1], the “temperature above which the ether converts to chlorinated dioxin (DCDD)” value is “above 200 °C”. In addition, the “Zone of Inhibition” value in series [2] (setting [5]) was found to be 1 mm; in series [2] (setting [6]) it was 4 mm; in series [2] (setting [7]), 12 mm; in series [3] (setting [5]), 0 mm; in series [3] (setting [6]) it was 0 mm; in series [3] (setting [7]) it was 0 mm. The “production of DCDD (dioxin level)” value in series [4] is “approximately 46 ppm”.
In the case of `C[Si](C)(C)Oc1cc(Cl)ccc1Oc1ccc(Cl)cc1Cl` [Modified, 2,4,4′-trichloro-2′-trimethylsilyloxy diphenyl ether], the zone of inhibition at 3 ppm in series [2] (Escherichia coli, 3 ppm solution soaked into filter paper disk) came to 1 mm; in series [3] (Pseudomonas aeruginosa, 3 ppm solution soaked into filter paper disk) it was 0 mm. Further, the zone of inhibition at 30 ppm in series [2] (Escherichia coli, 30 ppm solution soaked into filter paper disk) is 4 mm; in series [3] (Pseudomonas aeruginosa, 30 ppm solution soaked into filter paper disk), 0 mm. Besides, the zone of inhibition at 3000 ppm came to 12 mm in series [2] (Escherichia coli, 3000 ppm solution soaked into filter paper disk) and 0 mm in series [3] (Pseudomonas aeruginosa, 3000 ppm solution soaked into filter paper disk). Also, in series [4], the “production of DCDD (dioxin level)” value is given as “undetectable”.

A word on the zone of inhibition: it is the size of the clear area around the sample on an inoculated plate. A high value points to wide suppression of growth.
